Laboratory results as given in ChEMBL document CHEMBL5233211, “Progress in PD-1/PD-L1 pathway inhibitors: From biomacromolecules to small molecules” (Eur J Med Chem, 2020).
Each block holds one molecule with its values, some of them ahead of it. Numbered stars: 1 amine (or outer) side, 2 acyl side, 3 side chain; on linkers, the order of the positions; unused ones are H or OH. Bridge positions count the residues as written; N and C are the ends. Square brackets hold non-standard residues; d marks the D form. Peptide text beside a SMILES is read from it. ξ: configuration not given here. X1 = O=C(C(CO)NN[*:1])[*:2]; ξY = NC(Cc1ccc(O)cc1)C(=O)O; ξQ = NC(=O)CCC(N)C(=O)O; ξN = NC(=O)CC(N)C(=O)O

Experiments:
[1] = target: T1, Programmed cell death protein 1/Programmed cell death 1 ligand 1 (Homo sapiens, UniProt Q15116+Q9NZQ7); experiment: Inhibition of human PD-1/PD-L1 interaction; format: protein-complex assay
T1 sequence (Q15116 whole entry): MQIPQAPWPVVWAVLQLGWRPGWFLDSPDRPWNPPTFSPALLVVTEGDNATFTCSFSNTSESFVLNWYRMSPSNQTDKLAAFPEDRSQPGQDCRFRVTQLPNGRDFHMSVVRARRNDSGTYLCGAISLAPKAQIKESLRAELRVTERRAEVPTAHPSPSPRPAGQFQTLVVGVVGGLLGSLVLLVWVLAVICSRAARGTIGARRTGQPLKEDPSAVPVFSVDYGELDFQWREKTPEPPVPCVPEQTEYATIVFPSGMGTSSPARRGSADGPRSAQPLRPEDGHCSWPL
T1 sequence (Q9NZQ7 whole entry): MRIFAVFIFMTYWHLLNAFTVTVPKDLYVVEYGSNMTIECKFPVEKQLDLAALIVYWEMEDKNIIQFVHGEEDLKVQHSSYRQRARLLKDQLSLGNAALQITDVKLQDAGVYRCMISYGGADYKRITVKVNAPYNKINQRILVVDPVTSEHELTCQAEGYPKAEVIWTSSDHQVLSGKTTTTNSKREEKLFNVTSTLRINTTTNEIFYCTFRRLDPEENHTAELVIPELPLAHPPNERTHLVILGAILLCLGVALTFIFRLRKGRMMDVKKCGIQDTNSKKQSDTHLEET

[2] = target: Programmed cell death 1 ligand 1 (Homo sapiens, UniProt Q9NZQ7); experiment: Inhibition of PD-L1 in human PBMCs assessed as increase in INFgamma production; format: cell-based, PBMC
Programmed cell death 1 ligand 1 (Homo sapiens, UniProt Q9NZQ7), sequence (Q9NZQ7 whole entry): as above

[3] = target: T2, Programmed cell death 1 ligand 2 (Mus musculus, UniProt Q9WUL5); experiment: Inhibition of PD-L2 in mouse splenocytes assessed as increase in INFgamma production; format: cell-based, Splenocyte
T2 sequence (Q9WUL5 whole entry): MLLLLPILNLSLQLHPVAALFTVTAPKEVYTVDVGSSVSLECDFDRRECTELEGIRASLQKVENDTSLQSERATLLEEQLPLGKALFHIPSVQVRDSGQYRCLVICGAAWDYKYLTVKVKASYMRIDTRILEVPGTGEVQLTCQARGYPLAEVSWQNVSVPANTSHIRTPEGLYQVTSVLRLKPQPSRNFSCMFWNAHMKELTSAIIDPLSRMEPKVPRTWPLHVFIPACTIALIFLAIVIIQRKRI

[4] = target: T3, Programmed cell death 1 ligand 2 (Homo sapiens, UniProt Q9BQ51); experiment: Inhibition of PD-L2 in human PBMCs assessed as increase in INFgamma production; format: cell-based, PBMC
T3 sequence (Q9BQ51 whole entry): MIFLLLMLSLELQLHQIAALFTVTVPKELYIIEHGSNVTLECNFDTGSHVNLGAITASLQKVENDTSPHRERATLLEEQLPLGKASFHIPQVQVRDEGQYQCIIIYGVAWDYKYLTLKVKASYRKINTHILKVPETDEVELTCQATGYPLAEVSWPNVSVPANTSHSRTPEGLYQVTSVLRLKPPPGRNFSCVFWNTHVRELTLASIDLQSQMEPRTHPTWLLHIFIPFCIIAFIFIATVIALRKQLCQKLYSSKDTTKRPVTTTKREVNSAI

[5] = Inhibition of VISTA/PD-1 interaction in human PBMCs assessed as increase in INFgamma production; format: cell-based; conditions: PBMC
[6] = target: Programmed cell death 1 ligand 1 (Mus musculus, UniProt Q9EP73); experiment: Inhibition of PD-L1 in mouse splenocytes assessed as increase in INFgamma release; format: cell-based, Splenocyte
Programmed cell death 1 ligand 1 (Mus musculus, UniProt Q9EP73), sequence (Q9EP73 whole entry): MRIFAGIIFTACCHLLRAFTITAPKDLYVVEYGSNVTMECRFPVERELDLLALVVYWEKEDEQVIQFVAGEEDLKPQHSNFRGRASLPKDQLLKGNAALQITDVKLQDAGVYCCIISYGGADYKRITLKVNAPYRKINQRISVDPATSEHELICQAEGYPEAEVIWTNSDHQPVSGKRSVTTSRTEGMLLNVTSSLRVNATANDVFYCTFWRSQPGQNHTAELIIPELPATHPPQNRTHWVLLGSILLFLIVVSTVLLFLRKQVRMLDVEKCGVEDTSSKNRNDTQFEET

[7] = Binding affinity to human PD-1
[8] = Induction of mouse splenocytes proliferation at 100 nM; format: functional, Splenocyte
[9] = target: T1, Programmed cell death protein 1/Programmed cell death 1 ligand 1; experiment: Inhibition of recombinant human PD-1/PD-L1 interaction relative to control; format: protein-complex assay; conditions: concentration not given here
[10] = target: T1, Programmed cell death protein 1/Programmed cell death 1 ligand 1; experiment: Inhibition of PD-1/PD-L1 interaction in human MDA-MB-231 cells assessed as increase in mouse splenocytes proliferation; format: cell-based; set-up: concentration or dose not given beside the values
[11] = test system: CT26; experiment: Antitumor activity against mouse CT26 cells implanted in mouse at 3 mg/kg administered for 25 days; format: functional; conditions: time 25 day

Molecule: Cc1c(Nc2nccc3cc(CN[C@H](C)CO)cnc23)cccc1-c1cccc(-c2nc3cc(CN4CCC(C(=O)O)CC4)cc(C#N)c3o2)c1C
- IC50 [1]: < 10 nM

- EC50 [5]: 49.4 nM
Molecule: CC(O)[C@H](NC(=O)N[C@@H](CC(N)=O)c1nnc([C@@H](N)CO)s1)C(=O)O (stereo partly specified)
- EC50 [2]: 56.4 nM
- EC50 [3]: 55 nM
- EC50 [4]: 149 nM
- EC50 [6]: 33.8 nM

- Kd [7]: 3140 nM
Molecule: H-FNWDYSLEELREKAKYK-OH

Molecule: CC(O)[C@H](NC(=O)N[C@@H](CCC(N)=O)c1nnc([C@@H](N)C(C)O)o1)C(=O)O (stereo partly specified)
- Activity [8]: 97%

Molecule: COc1cc(NS(=O)(=O)c2ccc(N)cc2)ncn1
- inhibition [9]: 10.2%

Molecule: C[C@@H](O)[C@@H]1NC(=O)[C@H](CC(N)=O)NC(=O)C(CO)NNC(=O)C(CCC(N)=O)NC(=O)[C@H](Cc2ccccc2)NC(=O)[C@H](CO)NC(=O)[C@H](CCC(=O)O)NC(=O)[C@H](CO)NC1=O (stereo partly specified) (cyclo(ESF[ξQ][X1]NTS))
- Activity [10]: 76%

Molecule: Cc1c(-c2ccccc2)cccc1-c1nc2cc(CNCCO)c(OCCN3CCOCC3)cc2o1
- IC50 [1]: < 10 nM

Molecule: N[C@@H](Cc1ccc(O)cc1)c1noc([C@@H]2CCCN2C(=O)N[C@@H](Cc2ccc(O)cc2)C(=O)O)n1
- Activity [8]: 91%

Molecule: Cc1c(-c2nc3cc(CN4CC[C@@](C)(C(=O)O)C4)cc(C#N)c3o2)cccc1-c1cccc(-c2nc3c(s2)CN(C(=O)CN(C)C(C)C)C3)c1C
- IC50 [1]: < 10 nM

Molecule: C[C@@H](O)[C@@H]1NC(=O)C(N[C@@H](CO)C(=O)O)CCC(=O)NCCCCC(C(=O)N[C@@H](CO)C(=O)N[C@@H](Cc2ccccc2)C(N)=O)NC(=O)[C@H](CO)NC1=O (stereo partly specified)
- Activity [10]: 78%

Molecule: CC[C@H](C)[C@H](NC1CCC(=O)NCCCCC(C(=O)N[C@@H](CO)C(=O)N[C@@H](Cc2ccccc2)C(N)=O)NC(=O)[C@H](CO)NC(=O)[C@H]([C@@H](C)O)NC1=O)C(=O)O (stereo partly specified)
- Activity [10]: 76%

- Kd [7]: 339000 nM
Molecule: H-FNWDYSWKSERLKEAYDL-OH

Molecule: Cc1c(-c2ccc3c(c2)OCCO3)cccc1-c1nc2cc(CNCCO)c(OCC#N)cc2o1
- IC50 [1]: < 10 nM

Molecule: C[C@@H](O)[C@H](N)C(=O)NNC(=O)[C@H](CC(N)=O)NC(=O)N[C@@H](CO)C(=O)O
- EC50 [6]: 27 nM

Molecule: CCCCN(CCCC)CCOc1cccc(OC(=O)N(C)C)c1
- inhibition [9]: 41.9%

Molecule: Cc1c(-c2ccc3c(c2)OCCO3)cccc1-c1nc2cc(CNCCO)cc(C)c2o1
- IC50 [1]: < 10 nM

Molecule: CC[C@H](C)[C@@H]1NC(=O)[C@H](CC(C)C)NC(=O)[C@H](Cc2ccccc2)NC(=O)CSC[C@@H](C(=O)NCC(N)=O)NC(=O)[C@H](CCCNC(=N)N)NC(=O)[C@H](Cc2ccccc2)NC(=O)[C@H](C(C)C)NC(=O)[C@H](CCCNC(=N)N)NC(=O)[C@H](CC(=O)O)NC(=O)[C@H](CCCNC(=N)N)NC(=O)[C@H]([C@@H](C)CC)NC(=O)[C@H](C(C)C)NC1=O ({CH2CO}-FLIVIRDRVFRCG-NH2; thioether N-12)
- EC50 [1]: 0.72 nM

Molecule: CNCCOc1cccc(OC(=O)N(C)C)c1
- inhibition [9]: 18.5%

Molecule: C[C@@H](O)[C@H](NC(=O)[C@H](CO)NC(CCC(=O)NCCCCNC(=O)C(Cc1ccccc1)NC(=O)C(N)CO)C(N)=O)C(=O)N[C@@H](CC(N)=O)C(=O)N[C@@H](CO)C(=O)O (stereo partly specified)
- Activity [10]: 87%

Molecule: C[C@@H](O)[C@H](N)c1noc([C@H](Cc2ccc(O)cc2)NC(=O)N2CCC[C@H]2C(=O)O)n1
- Activity [8]: 99%

- Kd [7]: 21600 nM
Molecule: H-LDYGDKREGQMAE-OH

Molecule: C[C@H](O)[C@H](NC(=O)N[C@@H](Cc1ccccc1)c1nc([C@@H](N)CO)no1)C(=O)O
- Activity [8]: 92%

- Kd [7]: 3320 nM
Molecule: H-LDYVNRRKMYQ-OH

- Kd [7]: 22400 nM
Molecule: N[C@@H](Cc1c[nH]c2ccccc12)C(=O)N[C@@H](CC(=O)O)C(=O)N[C@@H](Cc1ccc(O)cc1)C(=O)N[C@@H](CC(=O)O)C(=O)O (H-WDYD-OH)

Molecule: Cc1nnc(NS(=O)(=O)c2ccc(N)cc2)s1
- inhibition [9]: 29.3%

Molecule: C[C@@H](O)[C@@H]1NC(=O)C(N[C@@H](CO)C(=O)O)CCCCNC(=O)CCC(C(=O)N[C@@H](CO)C(=O)N[C@@H](Cc2ccccc2)C(N)=O)NC(=O)[C@H](CO)NC1=O (stereo partly specified)
- Activity [10]: 84%

Molecule: Cc1c(Nc2nccc3cc(CN4CC[C@@H](O)C4)cnc23)cccc1-c1cccc(-c2nc3cc(CN[C@H]4CC[C@@H](C(=O)O)C4)cc(C#N)c3o2)c1C
- IC50 [1]: < 10 nM

- Kd [7]: 3130 nM
Molecule: CC[C@H](C)[C@H](NC(=O)[C@H](CC(N)=O)NC(=O)CNC(=O)[C@H](Cc1cnc[nH]1)NC(=O)[C@H](CCCNC(=N)N)NC(=O)C(Cc1ccc(O)cc1)NC(=O)[C@H](CC(=O)O)NC(=O)[C@H](CCCCN)NC(=O)[C@H](CCC(=O)O)NC(=O)[C@@H](N)[C@@H](C)O)C(=O)N[C@@H](CCCNC(=N)N)C(=O)N[C@@H](CCSC)C(=O)N[C@@H](CCCCN)C(=O)N[C@@H](CC(C)C)C(=O)N[C@@H](C)C(=O)N[C@@H](Cc1ccc(O)cc1)C(=O)N[C@@H](CC(=O)O)C(=O)N[C@@H](CC(C)C)C(=O)O (stereo partly specified) (H-TEKD[ξY]RHGNIRMKLAYDL-OH)

Molecule: Cc1c(-c2ccccc2)cccc1-c1nc2cc(CNCCO)ccc2o1
- IC50 [1]: < 10 nM

Molecule: C[C@H](O)[C@@H](N)C(=O)NNC(=O)[C@@H](CC(N)=O)NC(=O)N[C@H](CO)C(=O)O
- EC50 [6]: 40 nM

Molecule: C[C@H](O)[C@H](NC(=O)N[C@@H](CC(N)=O)C(=O)NNC(=O)[C@@H](N)CO)C(=O)O
- EC50 [6]: 30 nM
- Activity [11]: 46%

- Kd [7]: 28300 nM
Molecule: H-GIDYEERWK-OH

Molecule: CCN(Cc1ccccc1)C(=O)N[C@@H](CC(N)=O)c1nc([C@@H](N)CO)no1
- Activity [8]: 92%

Molecule: Cc1c(-c2nc3c(o2)CN(C(=O)CN2CCC(O)CC2)C3)cccc1-c1cccc(-c2nc3cc(CN4CC[C@@](C)(C(=O)O)C4)cc(C#N)c3o2)c1C
- IC50 [1]: < 10 nM

- Kd [7]: 1380 nM
Molecule: CC(C)C[C@H](NC(=O)[C@H](CCC(N)=O)NC(=O)[C@H](C)NC(=O)[C@H](CCCNC(=N)N)NC(=O)[C@H](CCC(N)=O)NC(=O)[C@H](CO)NC(=O)[C@H](CC(N)=O)NC(=O)[C@H](Cc1ccc(O)cc1)NC(=O)[C@H](CC(=O)O)NC(=O)[C@H](Cc1c[nH]c2ccccc12)NC(=O)C(CC(N)=O)NC(=O)CN)C(=O)N[C@@H](Cc1ccc(O)cc1)C(=O)N[C@@H](CC(N)=O)C(=O)N[C@@H](CCC(N)=O)C(=O)O (stereo partly specified) (H-G[ξN]WDYNSQRAQLYNQ-OH)

Molecule: CC[C@H](C)[C@H](NC1CCC(=O)NCCCCC(C(=O)N[C@@H](CO)C(=O)NC(CCC(N)=O)C(=O)O)NC(=O)[C@H](CO)NC(=O)[C@H](CCSC)NC1=O)C(=O)O (stereo partly specified)
- Activity [10]: 76%
